Data: ChEMBL document CHEMBL5260828, “Amphiphilic glycoconjugates as potential anti-cancer chemotherapeutics” (Eur J Med Chem, 2018)
Converted amounts (≈) assume the structure as drawn.

Each molecule was assayed on P388 (assay: Cytotoxicity against mouse P388 cells). Settings: Mus musculus, P388; read-out: IC50.
Assay type: functional, cell-based
Molecule `CO[C@@H]1[C@H](O[C@@H]2CO[C@@H](O[C@@H]3[C@@H](O)[C@H](O)CO[C@H]3N3C(=O)/C(=C(O)/C=C/C=C/C=C/C=C/C=C(Cl)/C=C/C=C/C=C/[C@@H]4O[C@H](C)C[C@@H]4Cl)C(=O)[C@@H]3CC(N)=O)[C@@H](O)[C@@H]2O)O[C@H](C)[C@H]1O` has an IC50 of 0.2 µg/mL (≈ 0.213 µM).
`CO[C@@H]1[C@H](O[C@@H]2CO[C@@H](O[C@@H]3[C@@H](O)[C@H](O)CO[C@H]3N3C(=O)/C(=C(O)/C=C/C=C/C=C/C=C/C=C(Cl)/C=C/C=C/[C@@H]4O[C@H](C)C[C@@H]4Cl)C(=O)[C@@H]3CC(N)=O)[C@@H](O)[C@@H]2O)O[C@H](C)[C@H]1O` was tested, and the IC50 was 0.05 µg/mL (≈ 0.0547 µM).
`CO[C@@H]1[C@H](O[C@@H]2CO[C@@H](O[C@@H]3[C@@H](O)[C@H](O)CO[C@H]3N3C(=O)/C(=C(O)/C=C/C=C/C=C/C=C/C=C(Cl)/C=C/C=C/[C@H]4O[C@H](C)C[C@@H]4Cl)C(=O)[C@@H]3CC(N)=O)[C@@H](O)[C@@H]2O)O[C@H](C)[C@H]1O` showed an IC50 of 0.2 µg/mL (≈ 0.219 µM).
`C[C@@H]1C[C@H](Cl)[C@H](/C=C/C=C/C=C/C(Cl)=C/C=C/C=C/C=C/C=C/C(O)=C2\C(=O)[C@H](CC(N)=O)N([C@@H]3OC[C@@H](O)[C@H](O)[C@H]3O[C@@H]3OC[C@@H](O[C@@H]4O[C@H](C)[C@@H](O)[C@@H]4O)[C@@H](O)[C@@H]3O)C2=O)O1` was tested, and the IC50 was > 5 µg/mL.
`C[C@@H]1C[C@H](Cl)[C@@H](/C(Cl)=C/C=C/C(Cl)=C/C=C/C=C/C=C/C=C/C(O)=C2\C(=O)[C@H](CC(N)=O)N([C@@H]3OC[C@@H](O)[C@H](O)[C@H]3O[C@@H]3OC[C@@H](O[C@@H]4O[C@H](C)[C@@H](O)[C@@H]4O)[C@@H](O)[C@@H]3O)C2=O)O1` gave an IC50 of 0.2 µg/mL (≈ 0.214 µM).
For `CO[C@@H]1[C@H](O[C@@H]2CO[C@@H](O[C@@H]3[C@@H](O)[C@H](O)CO[C@H]3N3C(=O)/C(=C(O)/C=C/C=C/C=C/C=C/C=C(Cl)/C=C/C=C(\Cl)[C@H]4O[C@H](C)C[C@@H]4Cl)C(=O)[C@@H]3CC(N)=O)[C@@H](O)[C@@H]2O)O[C@H](C)[C@H]1O`, the IC50 was 0.2 µg/mL (≈ 0.211 µM).

Each molecule was assayed on KB (assay: Cytotoxicity against human KB cells assessed as inhibition of cell growth by measuring effective dose). Settings: read-out: ED50 (the source's name).
Assay type: functional
Work on `C/C=C(\C)C(=O)O[C@H]1[C@H](O)[C@@H](O)[C@H](O[C@@H]2[C@H]3OC(=O)CCCCCCCCC[C@H](CCCCC)O[C@@H]4O[C@H](C)[C@@H](O)[C@H](O)[C@H]4O[C@@H]4O[C@H](COC(=O)[C@@H](C)[C@H](C)O)[C@@H](O)[C@H](O)[C@H]4O[C@H](O[C@H]2C)[C@@H]3OC(=O)C(C)C)O[C@@H]1C` [ORIZABIN XIII] yielded an EC50 of 1 µg/mL (≈ 0.903 µM).
For `C/C=C(\C)C(=O)O[C@H]1[C@H](O)[C@@H](O)[C@H](O[C@@H]2[C@H]3OC(=O)CCCCCCCCC[C@H](CCCCC)O[C@@H]4O[C@H](C)[C@@H](O)[C@H](O)[C@H]4O[C@@H]4O[C@H](COC(=O)[C@H](C)[C@@H](C)O)[C@@H](O)[C@H](O)[C@H]4O[C@H](O[C@H]2C)[C@@H]3OC(=O)C(C)C)O[C@@H]1C` [ORIZABIN XII], the EC50 was 1 µg/mL (≈ 0.903 µM).
`C/C=C(\C)C(=O)O[C@H]1[C@H](O)[C@@H](O)[C@H](O[C@@H]2[C@H]3OC(=O)CCCCCCCCC[C@H](CCCCC)O[C@@H]4O[C@H](C)[C@@H](O)[C@H](O)[C@H]4O[C@@H]4O[C@H](COC(=O)[C@@H](C)CC)[C@@H](O)[C@H](O)[C@H]4O[C@H](O[C@H]2C)[C@@H]3OC(=O)[C@H](C)[C@@H](C)O)O[C@@H]1C` [ORIZABIN XIV] gave an EC50 of 1 µg/mL (≈ 0.892 µM).
`CCCCC[C@H]1CCCCCCCCCC(=O)O[C@@H]2[C@@H](O[C@@H]3O[C@H](C)[C@@H](OC(=O)[C@@H](C)CC)[C@H](O)[C@H]3O)[C@H](C)O[C@@H](O[C@H]3[C@H](O[C@H]4[C@H](O1)O[C@H](C)[C@@H](O)[C@@H]4O)O[C@H](COC(=O)[C@@H](C)CC)[C@@H](O)[C@@H]3O)[C@@H]2OC(=O)[C@@H](C)[C@H](C)O` [ORIZABIN XIX] was tested, and the EC50 was 1 µg/mL (≈ 0.89 µM).
With `C/C=C(\C)C(=O)O[C@H]1[C@H](O)[C@@H](O)[C@H](O[C@@H]2[C@H]3OC(=O)CCCCCCCCC[C@H](CCCCC)O[C@@H]4O[C@H](C)[C@@H](O)[C@H](O)[C@H]4O[C@@H]4O[C@H](COC(=O)C(C)C)[C@@H](O)[C@H](O)[C@H]4O[C@H](O[C@H]2C)[C@@H]3OC(=O)[C@@H](C)[C@H](C)O)O[C@@H]1C` [ORIZABIN XI] the EC50 was 1 µg/mL (≈ 0.903 µM).
`CCCCC[C@H]1CCCCCCCCCC(=O)O[C@@H]2[C@@H](O[C@@H]3O[C@H](C)[C@@H](OC(=O)[C@@H](C)CC)[C@H](O)[C@H]3O)[C@H](C)O[C@@H](O[C@H]3[C@H](O[C@H]4[C@H](O1)O[C@H](C)[C@@H](O)[C@@H]4O)O[C@H](COC(=O)[C@@H](C)CC)[C@@H](O)[C@@H]3O)[C@@H]2OC(=O)[C@H](C)[C@@H](C)O` [ORIZABIN XVIII] gave an EC50 of 1 µg/mL (≈ 0.89 µM).
`C/C=C(\C)C(=O)O[C@H]1[C@H](O)[C@@H](O)[C@H](O[C@@H]2[C@H]3OC(=O)CCCCCCCCC[C@H](CCCCC)O[C@@H]4O[C@H](C)[C@@H](O)[C@H](O)[C@H]4O[C@@H]4O[C@H](COC(=O)[C@@H](C)[C@H](C)O)[C@@H](O)[C@H](O)[C@H]4O[C@H](O[C@H]2C)[C@@H]3OC(=O)[C@@H](C)CC)O[C@@H]1C` [ORIZABIN XVII] gave an EC50 of 1 µg/mL (≈ 0.892 µM).
Work on `C/C=C(\C)C(=O)O[C@H]1[C@H](O)[C@@H](O)[C@H](O[C@@H]2[C@H]3OC(=O)CCCCCCCCC[C@H](CCCCC)O[C@@H]4O[C@H](C)[C@@H](O)[C@H](O)[C@H]4O[C@@H]4O[C@H](COC(=O)[C@H](C)[C@@H](C)O)[C@@H](O)[C@H](O)[C@H]4O[C@H](O[C@H]2C)[C@@H]3OC(=O)[C@@H](C)CC)O[C@@H]1C` [ORIZABIN XVI] yielded an EC50 of 1 µg/mL (≈ 0.892 µM).
In the case of `C/C=C(\C)C(=O)O[C@H]1[C@H](O)[C@@H](O)[C@H](O[C@@H]2[C@H]3OC(=O)CCCCCCCCC[C@H](CCCCC)O[C@@H]4O[C@H](C)[C@@H](O)[C@H](O)[C@H]4O[C@@H]4O[C@H](COC(=O)[C@@H](C)CC)[C@@H](O)[C@H](O)[C@H]4O[C@H](O[C@H]2C)[C@@H]3OC(=O)[C@@H](C)[C@H](C)O)O[C@@H]1C` [ORIZABIN XV], the EC50 is reported as 1 µg/mL (≈ 0.892 µM).
Molecule `CCCCC[C@H]1CCCCCCCCCC(=O)O[C@@H]2[C@@H](O[C@@H]3O[C@H](C)[C@@H](OC(=O)[C@@H](C)CC)[C@H](O)[C@H]3O)[C@H](C)O[C@@H](O[C@H]3[C@H](O[C@H]4[C@H](O1)O[C@H](C)[C@@H](O)[C@@H]4O)O[C@H](COC(=O)[C@@H](C)[C@H](C)O)[C@@H](O)[C@@H]3O)[C@@H]2OC(=O)[C@@H](C)CC` [ORIZABIN XXI] has an EC50 of 1 µg/mL (≈ 0.89 µM).
`CCCCC[C@H]1CCCCCCCCCC(=O)O[C@@H]2[C@@H](O[C@@H]3O[C@H](C)[C@@H](OC(=O)[C@@H](C)CC)[C@H](O)[C@H]3O)[C@H](C)O[C@@H](O[C@H]3[C@H](O[C@H]4[C@H](O1)O[C@H](C)[C@@H](O)[C@@H]4O)O[C@H](COC(=O)[C@H](C)[C@@H](C)O)[C@@H](O)[C@@H]3O)[C@@H]2OC(=O)[C@@H](C)CC` [ORIZABIN XX] showed an EC50 of 1 µg/mL (≈ 0.89 µM).
Molecule `C/C=C(\C)C(=O)O[C@H]1[C@H](O)[C@@H](O)[C@H](O[C@@H]2[C@H]3OC(=O)CCCCCCCCC[C@H](CCCCC)O[C@@H]4O[C@H](C)[C@@H](O)[C@H](O)[C@H]4O[C@@H]4O[C@H](COC(=O)C(C)C)[C@@H](O)[C@H](O)[C@H]4O[C@H](O[C@H]2C)[C@@H]3OC(=O)[C@H](C)[C@@H](C)O)O[C@@H]1C` [ORIZABIN X] has an EC50 of 1 µg/mL (≈ 0.903 µM).
